One assay concerns the target 5-HT2A (Homo sapiens, UniProt P28223). Briefly: 5-HT2A receptor binding in human post-mortem frontal cortical tissue.
The subject of assay [1] is primary cortical rat neurons. Description: Synaptogenesis assay in primary cortical rat neurons. The following applies: 1 μM (highest concentration), DIV1-DIV10. Format: cell-based. The method, then: Pregnant rats for this study were purchased from a commercial breeder. Primary cortical neurons from E17/E18 rat pups were isolated and seeded in 96-well plates. Cells were treated with compound 2-2, FGF (Reference item) or vehicle. After incubation with the respective treatment, cortical neurons were stained for synapsin and tubulin using immunofluorescence.
Stained cells were imaged with the Cytation 5 Multimode reader. From each well, 9 images were taken at 10× magnification. Digital images from cortical neurons were analyzed for the following parameter using a software-supported automatic quantification method: Number of synapsin positive objects. Analysis was performed using Gen5 software. The experiment was run in n=10 technical replicates per condition. Vehicle control and FGF were included on each plate totaling n=20 technical replicates.
Primary cortical neurons were prepared from timed pregnant Spargue Dawley rats at E17/E18. Animals were sacrificed (see section 3.3.1) and embryos were dissected in Calcium and Magnesium free Hanks Balanced Salt Solution (CMF-HBSS) containing 15 mM HEPES and 10 mM NaHCO3, pH 7.2. Embryos were decapitated, skin and skull gently removed and hemispheres were separated. After removing meninges and brain stem, the cortices were isolated, chopped with a sterile razor blade in Chop solution (Hibernate-E without Calcium containing 2% B-27) and digested in 2 mg/mL papain (Worthington) dissolved in Hibernate-E without Calcium for 30 minutes (±5 min) at 30° C. The cortices of the embryos from the two rats were pooled and processed together.
Cortices were triturated for 10-15 times with a fire-polished silanized Pasteur pipette in Hibernate-E without Calcium containing 2% B-27, 0.01% DNaseI, 1 mg/mL BSA, and 1 mg/mL Ovomucoid Inhibitor. Undispersed pieces were allowed to settle by gravity for 3 min and the supernatant was centrifuged for 3 min at 228 g. […]
Cells were counted in a hemacytometer and seeded in nutrition medium on poly-D-lysine pre-coated 96-well plates at a density of 1.5×10^4 cells/well. […]

The subject of another assay is C57BL/6J male mice. Briefly: Mouse forced swim test 24 hr after single administration. The note with it: 3, 10 & 30 mg/kg i.p., 24 hr post-administration. It is filed as in vivo. Here is the method:
Young adult C57BL/6J male mice (8-9 weeks old at arrival; n=113) were purchased from Charles River (DE). All C57BL/6J mice were housed in groups of 4 per cage. Mice were maintained under controlled conditions (21±2° C., 50±1% humidity, 12/12 h light/dark cycles, lights on at 7 a.m.) with food and water available ad libitum.
Experimental Design: The experimental procedures were in accordance with the European Communities Council Directive (Directive 2010/63 EU into the Polish Directives (Journal of Laws of 2021, item 1331, as amended)) and approved by the Local Ethic Committee in Olsztyn (Approval No. 27/203 from 22 Mar. 2023). […]
Forced Swim Test: After 17 days of acclimatization (11-12 weeks old), all mice were randomly assigned to experimental groups (n=14-15/group). Sample size (n=14 per group) was determined based on G-power calculations using alpha 0.05, t-test and effect size calculation based on mean and SD from vehicle and positive control groups. […] Because little immobility is observed during the first 2 minutes of the FST, only immobility occurring during the last 4 minutes was scored and analyzed. […] All test sessions were recorded using a video camera placed on the side of the cylinder for subsequent behavioral analysis by scorers blinded to the treatment conditions. […]
Data Analysis: Data for each compound have been analyzed separately using the GraphPad Prism 9 statistical software. […]

The structures appear in SMILES notation. “Also recorded” adds a separate entry of the source.

Chain of 5-HT2A (P28223 whole entry): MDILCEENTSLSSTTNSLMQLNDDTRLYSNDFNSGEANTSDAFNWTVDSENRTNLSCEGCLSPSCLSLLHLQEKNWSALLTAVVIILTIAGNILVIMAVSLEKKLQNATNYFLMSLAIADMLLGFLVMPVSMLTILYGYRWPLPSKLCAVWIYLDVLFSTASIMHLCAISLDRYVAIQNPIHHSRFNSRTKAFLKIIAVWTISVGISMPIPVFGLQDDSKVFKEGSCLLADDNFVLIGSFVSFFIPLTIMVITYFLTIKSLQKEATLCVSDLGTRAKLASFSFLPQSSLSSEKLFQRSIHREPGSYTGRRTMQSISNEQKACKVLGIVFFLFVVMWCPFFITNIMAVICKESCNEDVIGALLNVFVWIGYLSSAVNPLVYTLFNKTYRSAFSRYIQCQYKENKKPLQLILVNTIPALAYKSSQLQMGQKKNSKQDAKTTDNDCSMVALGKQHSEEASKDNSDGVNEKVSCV

The term IC50 denotes the midpoint of a concentration-inhibition curve. Lower therefore signals greater potency. A word on the Ki: it is a dissociation constant, usually derived from enzyme kinetics or from competition with a known ligand. A high value points to a looser hold on the target. On 5-HT2A, `COc1ccc(OC)c(CCNCc2cc(C)cc(F)c2)c1` [Compound 2-2, 2-(2,5-dimethoxyphenyl)-N-(3-fluoro-5-methylbenzyl)ethan-1-amine] came in with a half-maximal inhibitory concentration (IC50) of 69 nM and an inhibition constant (Ki) of 30.8 nM. In addition, the “synaptogenesis compared to VC (synapsin positive objects normalized to tubulin III area)” value in assay [1] is recorded as “did not have any significant effect”.

As for `COc1ccc(OC)c(CCNCc2cc(C)cc(Cl)c2)c1` [Compound 2-1, N-(3-chloro-5-methylbenzyl)-2-(2,5-dimethoxyphenyl)ethan-1-amine], the “immobility time in mouse FST” value in the assay on C57BL/6J male mice is recorded as “lack of robust differences; also recorded: Neither compound 2-1 (3, 10 & 30 mg/kg) nor compound 2-2 (3 & 30 mg/kg) showed significant reductions”.

Values taken from patent publication US12343319B2, “Compositions and methods for treatment of diseases and disorders” (Atai Therapeutics Inc., priority 2023, dated 2025).
